Tested on: Y-1 (ATCC Accession No. CCL 79) cells
Assay: GEM (Gene Expression Microarray) expression profile of treated vs control Y1 cells, Incyte mouse cDNA array
Type: cell-based
Conditions: 16 hours; for number of common genes upregulated by FSH, 024 & forskolin: Y1 cells, FSH 10^-9 M, 024 1 uM, Forskolin 1 uM
Protocol: A mouse cDNA array from Incyte, Inc. was used to analyze the expression profile of Y-1 (ATCC Accession No. CCL 79) cells. This transcriptional profile analysis led to the identification of the FSH or FSH Mimetic stimulated genes of the invention.
Y1 cells were incubated with Ham's F-10 Nutrient Mixture Media supplemented with glutamine (1%), G418 geneyticin (80 ug/ml), penicillin-streptomycin (1%), fetal horse serum (15%), and fetal bovine serum (2.5%) and grown to confluency. Confluent cells were then exposed to FSH at 10^-9 M (See Table 1) or FSH Mimetic 024 at 1 uM (see Table 3), Forskolin at 1 uM (See Table 4) and all three agents (i.e., FSH at 10^−9 M, FSH Mimetic 024 at 1 uM and Forskolin at 1 uM—See Table 2) for 16 hours. Total RNA was isolated from control or treated cells with ULTRASPEC™ RNA from Biotech Laboratories, Inc. All media and supplements were obtained from Gibco BRL Life Technologies.
The GEM (Gene Expression Microarray) technology uses the following steps to discover differences in gene expression between two messenger RNA (mRNA) samples. Small samples of cDNA were deposited on a glass surface and bonded to the glass. Subsequently, large portions from one half of the DNA's double strands were removed in order to activate the individual elements of the array, preparing them to react and bind to their uniquely matched DNA counterparts in the cells being tested.
Two mRNA samples were prepared and color labeled, since the GEM technology uses a color coding technique to discover the differences in gene expression between two mRNA samples. […]
The two fluorescent probe samples were simultaneously applied to a single microarray, where they competitively react with the arrayed cDNA molecules. […] The intensity of the fluorescence at each array element is proportional to the expression level of that gene in the sample. […] The ratio of the two fluorescent intensities provided a quantitative measurement of the relative gene expression level in the two cell samples. […]

Row | Compound | number of genes regulated in Y1 cells (FSH at 10^-9 M) | number of common genes upregulated by FSH, 024 & forskolin
1 | Follicle Stimulating Hormone [FSH] | FSH regulats 189 genes in Y1 cells | 64 common genes upregulated by FSH, 024 & forskolin
2 | C=C[C@@]1(C)CC(=O)[C@]2(O)[C@@]3(C)[C@@H](O)CCC(C)(C)[C@@H]3[C@H](O)[C@H](OC(C)=O)[C@@]2(C)O1 [Forskolin, reference compound] | – | 64 common genes upregulated by FSH, 024 & forskolin
